Results reported in US12544375B2, “Small molecule therapeutic for parkinson's disease paired with a biomarker of therapeutic activity” (The Board of Trustees of the Leland Stanford Junior …, priority 2019, dated 2026).

Test system: healthy-1 or PD-2 fibroblasts
Assay: Peroxisome movement or distribution, EGFP-peroxisome live imaging
Format: cell-based, human
Conditions: 10 μM for 30 hrs
Method: FIG. 8. Related to FIG. 2-4. Miro1 Reducer in Human Cell and Fly Models. (A) Fibroblasts from Healthy-1 and PD-2 were treated, lysed, and blotted as indicated. Band intensities are normalized to those of GAPDH from the same blots and compared to “Healthy-1, no treatment”. n=4 independent experiments. (B) Fibroblasts from PD-2 were treated and immunostained as indicated. The intensity was quantified for each cell across 264-320 cells from 3 independent experiments, compared to “no treatment”. (C) Fibroblasts were treated, immunoprecipitated (IPed) with anti-Miro1, and blotted as indicated. Similar results were observed twice. (D) Similar as in (C), fibroblasts were treated as indicated, and IPed with anti-Miro1. The GTPase activity of the IPed Miro1 protein was measured as described in Method. […] The MitoSox intensity was quantified for each cell across 106-161 cells from 3 coverslips. […] The TMRM intensity was measured for each cell across 48-60 cells from 3 independent experiments, and expressed as a fraction of the mean of “Healthy-1, no treatment”. […] The movement (the intensity of non-yellow) was quantified for each cell as described in (Tsai et al., 2014) across 22-31 cells from 3 transfections. […] (1) Left: The percentage of TH-positive iPSC-derived neurons out of total cells (Dapi-positive) is calculated after immunocytochemistry under 20× as described in FIG. 3. […]

## O=C(Nc1ccc(Nc2cc(-n3ccnc3)ncn2)cc1)Nc1cccc(F)c1 [Miro1 Reducer]
  peroxisome movement or distribution: did not affect
